Test results taken from patent publication US10258639B2, “Methods for treating insulin resistance and for sensitizing patients to GLP1 agonist therapy” (Research Development Foundation, priority 2014, dated 2019).

Tests used:
[1] = tested on: PKIB in INS1 cells; assay: PKIB expression (mRNA/protein) in INS1 cells; assay type: cell-based, rat; conditions: DMOG 1 mM
Description: Moreover, RNAi-mediated depletion of HIF-1α also disrupted PKIB induction, whereas HIF-1α over-expression potentiated it (FIG. 5f, FIGS. 10e and 10f).
(§1) INS-1 insulinoma cells were cultured in RPMI (corning cellgro) containing 10% fetal bovine serum (Gemini Bio Products), 100 μg/mL penicillin-streptomycin and 1 mM sodium pyruvate (corning cellgro). MIN6 cells were grown in DMEM (corning cellgro) with 10% FBS, 100 μg/mL penicillin-streptomycin and 70 uM beta-mercaptoethanol. For chronic glucose experiments, cells were maintained under low (2.8 mM) or high (20 mM) glucose for 3 days. Exendin-4 (10 nM), Forskolin (10 μM), KCl (40 mM), DMOG (1 mM) and rapamycin (50 nM) were added to cells as indicated. Cellular cAMP levels were measured using an ELISA kit (Cayman Chemical Company) according to manufacturer's instructions.
Total RNAs from cells or primary islets were extracted using Trizol and cDNA was generated using the Transcriptor First Strand cDNA Synthesis kit (Roche Applied Science). cDNAs were quantified on a lightcycler 480 instrument (Roche Applied Science). […] Libraries were quantitated by Qubit (Invitrogen), and run on a MiSeq instrument with paired-end 75 bp reads using v3 chemistry (Illumina) Data were analyzed by tophat2 and cuffdiff against the mouse mm10 genome build. […]

[2] = tested on: CREB (Ser133) / CRTC2 in INS1 insulinoma cells; assay: Immunoblot of CREB phosphorylation and CRTC2 dephosphorylation in INS1 insulinoma cells; assay type: cell-based, rat; conditions: within 30 minutes, FSK 10 μM, KCl 40 mM
Description: as §1
Total protein from cultured cells or primary islets was extracted in a Tris-HCl buffer containing 0.5% NP40, protease and phosphatase inhibitors. Proteins were quantified using Bradford reagent and separated using SDS-PAGE. For cellular fractionation, cells were resuspended in hypotonic lysis buffer (40 mM TrisHCl PH 7.4, 10 mM NaCl, 1 mM EDTA with DTT and protease inhibitors). Cells were lysed using a dounce homogenizer and centrifuged. Cytosolic supernatants were collected. Nuclear pellets were washed 3 times and resuspended in nuclear extraction buffer (40 mM TrisHCl PH 7.4, 420 mM NaCl, 10% Glycerol, 1 mM EDTA). Samples were sonicated and centrifuged. Nuclear supernatants were collected. […]

[3] = Matthews et al. 2008; cited from earlier work
[4] = molecular target: human GLP1 receptor (Homo sapiens, UniProt P43220); conditions: greater affinity vs native GLP1; cited from earlier work
human GLP1 receptor, sequence (P43220 24-463): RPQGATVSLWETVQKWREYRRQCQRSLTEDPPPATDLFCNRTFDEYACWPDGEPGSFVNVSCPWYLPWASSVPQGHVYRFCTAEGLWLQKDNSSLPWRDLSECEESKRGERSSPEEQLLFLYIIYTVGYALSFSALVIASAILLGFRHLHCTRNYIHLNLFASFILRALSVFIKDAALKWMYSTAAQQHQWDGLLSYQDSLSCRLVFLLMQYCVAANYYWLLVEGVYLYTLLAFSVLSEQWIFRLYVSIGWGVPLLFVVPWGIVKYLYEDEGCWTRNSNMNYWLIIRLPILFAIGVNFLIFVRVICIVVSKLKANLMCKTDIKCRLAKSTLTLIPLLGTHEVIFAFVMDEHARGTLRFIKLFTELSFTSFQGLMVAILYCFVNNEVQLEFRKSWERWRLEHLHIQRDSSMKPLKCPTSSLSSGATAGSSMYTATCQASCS

[5] = mildly hyperglycaemic patients with Type 2 diabetes on metformin (Ratner et al. 2010); cited from earlier work

COC(=O)CNC(=O)C(=O)OC [DMOG]
PKIB expression [1]: upregulated PKIB expression

[Cl-].[K+] [KCl]
phosphorylation of CREB at Ser133 [2]: stimulated CREB phosphorylation to a lesser extent

Albiglutide: recombinant human serum albumin (HSA)-GLP1 hybrid protein; dipeptidyl peptidase-4-resistant glucagon-like peptide-1 dimer fused to human albumin
half-life after administration [3]: four to seven

Lixisenatide: exendin-4-based GLP1 receptor agonist
affinity for the human GLP1 receptor compared with native GLP1 [4]: approximately 4 fold | glycaemic control [5]: significantly improve glycaemic control
